Results from US20240342139A1, “DEVELOPMENT AND OPTIMIZATION OF THIOCHROMENOTHIAZOLE-BASED MSUT2 INHIBITORS AS CANDIDATES FOR THE TREATMENT OF TAUOPATHY” (The United States Government As Represented By the …, priority 2023, published 2024).

Columns and labels:
MSUT2 [1] = biological target: T1, MSUT2 (Homo sapiens (Human), UniProt Q6PJT7); assay: primary tau-inclusion neuronal assay (MSUT2 inhibitor activity); format: cell-based; conditions: for IC50: dose-dependent activity, primary tau-inclusion neuronal assay; for biological activity in the in vitro assay (SAR summary in words): preliminary SAR summary
Protocol: A variety of analogs in which the tricycle scaffold was modified were prepared and evaluated for their MSUT2 inhibitor activity.
The N-substitution pattern was also explored. The dose-dependent activity of these compounds was determined using a primary tau-inclusion neuronal assay and is summarized in Table 3 below.

MSUT2 [2] = biological target: T1, MSUT2; assay: NMR Saturation Transfer Difference studies; format: binding; conditions: 15 μM MSUT2 protein; down-field shift of ligand signals at 4.10 and 3.05 ppm; Kd could not be calculated
Protocol: The concentration of MSUT2 protein is 15 μM. Ratio of ligand to protein is indicated to the left of individual spectra.

MSUT2 [3] = biological target: T1, MSUT2; assay: photo-affinity labelling experiments (PAL probe BL-1138, TAMRA fluorescence SDS-PAGE); format: binding; conditions: for ligand-protein binding mode (decrease in tagging density with competitor): used as competitor against PAL probe BL-1138, full MSUT2 and GST-MSUT2 construct
Description: FIG. 7A and FIG. 7B show representative data from photo-affinity labelling experiments performed using UWK-5 (lanes 1-4) and BL-1122 (lanes 5-8) as competitors. Gel visualized by fluorescence imaging using TAMRA (excitation/emission maxima 546/579 nm).

[4] = biological target: MSUT2/poly(A)RNA binding interaction (Homo sapiens (Human), UniProt Q6PJT7); assay: high-throughput AlphaScreen, dose-response in vitro; format: biochemical; conditions: AlphaScreen dose-response profile in vitro
Description: MSUT2 has been identified as a therapeutic target for the treatment of tauopathy, and MSUT2 KO has decreased the accumulation of pathological tau and reduced the formation of NFTs in tau-transgenic PS19 mice models. Screening of >100,000 compounds in an AlphaScreen and an orthogonal FP-HTS assay identified a promising thiochromenathiazole-based inhibitor of the MSUT2/poly(A)RNA binding interaction. Preliminary SAR experiments have been conducted to confirm biological activity and to identify novel biologically active compounds of interest. […] Due to challenges in functionalizing an electron-deficient tricycle scaffold, the synthesis of analogues will coincide with an effort towards the optimization of synthetic conditions.

T1 sequence (Q6PJT7 whole entry, species assumed): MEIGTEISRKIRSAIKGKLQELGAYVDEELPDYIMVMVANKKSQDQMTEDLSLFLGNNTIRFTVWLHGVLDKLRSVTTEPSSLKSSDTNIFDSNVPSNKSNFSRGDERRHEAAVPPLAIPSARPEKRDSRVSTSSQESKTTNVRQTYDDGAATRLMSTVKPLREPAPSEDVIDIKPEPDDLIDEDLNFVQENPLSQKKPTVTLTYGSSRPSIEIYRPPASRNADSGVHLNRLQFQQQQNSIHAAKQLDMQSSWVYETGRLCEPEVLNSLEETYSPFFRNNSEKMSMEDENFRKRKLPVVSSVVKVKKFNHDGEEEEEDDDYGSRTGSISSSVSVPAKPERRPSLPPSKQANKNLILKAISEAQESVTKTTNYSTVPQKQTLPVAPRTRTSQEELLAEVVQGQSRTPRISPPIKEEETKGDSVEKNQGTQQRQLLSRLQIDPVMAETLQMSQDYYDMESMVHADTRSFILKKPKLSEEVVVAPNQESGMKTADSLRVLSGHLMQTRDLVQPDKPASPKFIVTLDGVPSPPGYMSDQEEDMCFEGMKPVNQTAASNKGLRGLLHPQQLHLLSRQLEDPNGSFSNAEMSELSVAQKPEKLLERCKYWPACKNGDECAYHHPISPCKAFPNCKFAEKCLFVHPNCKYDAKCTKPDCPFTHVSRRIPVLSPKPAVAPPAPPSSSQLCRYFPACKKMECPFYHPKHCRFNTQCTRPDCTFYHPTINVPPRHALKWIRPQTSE
Chain of MSUT2/poly(A)RNA binding interaction (Q6PJT7 whole entry, species assumed): as above

| SMILES | IC50 (MSUT2 [1]) [µM] | biological activity in the in vitro assay (SAR summary in words) (MSUT2 [1]) | also measured |
| --- | --- | --- | --- |
| CCS(=O)(=O)c1ccc(C(=O)Nc2nc3c(s2)CSCC3)cc1 | 109 | eliminates activity |  |
| Nc1nc2c(s1)CSc1ccccc1-2 [BL-0957] | 8.17 |  |  |
| Nc1nc2c(s1)COc1ccccc1-2 [BL-0959] | 3.91 | tolerated |  |
| Nc1nc2c(s1)CCc1ccccc1-2 [BL-0960] | > 100 | loss of biological activity |  |
| Nc1nc2c(s1)CCCc1ccccc1-2 [BL-0961] | > 100 | loss of biological activity |  |
| CCS(=O)(=O)c1ccc(C(=O)Nc2nc3c(s2)COc2ccccc2-3)cc1 [BL-0962] | > 100 |  |  |
| CCS(=O)(=O)c1ccc(C(=O)Nc2nc3c(s2)CCc2ccccc2-3)cc1 [BL-0963] | 45.1 |  |  |
| Nc1nc2c(s1)CSc1c(F)cccc1-2 [BL-0979] | 23.6 |  |  |
| Nc1nc2c(s1)CSc1ccc(F)cc1-2 [BL-0980] | 22.9 |  |  |
| Nc1nc2c(s1)CSc1cc(F)ccc1-2 [BL-0981] | 22.3 |  |  |
| Nc1nc2c(s1)CSc1c(F)cc(F)cc1-2 [BL-1017] | 60.9 |  |  |
| Nc1nc2c(s1)CSCC2 [BL-1018] | > 128 | eliminates activity |  |
| Fc1ccc(CNc2nc3c(s2)CSc2ccccc2-3)cc1 [BL-1023] | 16.9 |  |  |
| O=S(=O)(Nc1nc2c(s1)CSc1ccccc1-2)c1ccccc1 [BL-1027] | 24.7 |  |  |
| Fc1ccc(CNc2nc3c(s2)COc2ccccc2-3)cc1 [BL-1038] | 20.8 |  |  |
| O=S(=O)(Nc1nc2c(s1)COc1ccccc1-2)c1ccccc1 [BL-1039] | 34.2 |  |  |
| CCN(CC)c1ccc(CNc2nc3c(s2)CSc2ccccc2-3)cc1 [BL-1041] | 5.67 |  |  |
| CC(C)Cc1ccc(CNc2nc3c(s2)CSc2ccccc2-3)cc1 [BL-1043] | 20.2 |  |  |
| CC(C)(C)OC(=O)NCC(=O)Nc1nc2c(s1)CSc1ccccc1-2 [BL-1045] | 45.1 |  |  |
| NCC(=O)Nc1nc2c(s1)CSc1ccccc1-2 [BL-1046] | 23 |  |  |

| SMILES | IC50 (MSUT2 [1]) [µM] | biological activity in the in vitro assay (SAR summary in words) (MSUT2 [1]) | also measured |
| --- | --- | --- | --- |
| Nc1nc2c(s1)CSc1ncccc1-2 [BL-1047] | 11 |  |  |
| Fc1ccc(CNc2nc3c(s2)CCc2ccccc2-3)cc1 [BL-1051] | 21.8 |  |  |
| Nc1nc(-c2ccccc2)cs1 [BL-1055] | > 128 | eliminates activity |  |
| CCS(=O)(=O)c1ccc(C(=O)Nc2nc(-c3ccccc3)cs2)cc1 [BL-1057] | > 128 | eliminates activity |  |
| Nc1nc2c(s1)CS(=O)(=O)c1ccccc1-2 [BL-1075] | > 128 | complete loss of biological activity |  |
| COC(=O)CC[C@H](NC(=O)OC(C)(C)C)C(=O)Nc1nc2c(s1)CSc1ccccc1-2 [BL-1081] | 12.3 |  |  |
| C#CCNC(=O)Nc1nc2c(s1)CSc1ccccc1-2 [BL-1084] | 23.2 |  |  |
| C#CCCNC(=O)Nc1nc2c(s1)CSc1ccccc1-2 [BL-1085] | 12.2 | favorable activity |  |
| C#CCOC(=O)Nc1nc2c(s1)CSc1ccccc1-2 [BL-1088] | 14.3 | favorable activity |  |
| C#Cc1ccc(CNc2nc3c(s2)CSc2ccccc2-3)cc1 [BL-1092] | 11.7 |  |  |
| O=C(NCCS(=O)(=O)O)Nc1nc2c(s1)CSc1ccccc1-2 [BL-1122] | 3.26 | favorable activity | binding affinity of ligand for MSUT2 protein (MSUT2 [2]): tight binding affinity; ligand-protein binding mode (decrease in tagging density with competitor) (MSUT2 [3]): competitive |
| CC(=O)N1N=C(c2ccccc2)SC12CCSc1ccccc12 (stereo not drawn) [BL-1123] | 16 |  |  |
| CC1(C)Sc2ccccc2-c2nc(N)sc21 [BL-1124] | 51.7 |  |  |
| Nc1nc2c(s1)Cc1ccccc1-2 [BL-1125] | 49.5 |  |  |
| CCS(=O)(=O)c1ccc(CNc2nc3c(s2)CSc2ccccc2-3)cc1 [BL-1126] | 13.4 |  |  |
| O=C(Nc1ccccc1)Nc1nc2c(s1)CSc1ccccc1-2 [BL-1131] | 32 |  |  |
| Cc1ccc(CNc2nc3c(s2)CSc2ccccc2-3)s1 [BL-1132] | 7.73 | widely tolerated |  |
| c1ccc(CNc2nc3c(s2)CSc2ccccc2-3)cc1 [BL-1133] | 7.6 | widely tolerated |  |
| C#CCCC1(CCNC(=O)Nc2nc3c(s2)CSc2ccccc2-3)N=N1 [BL-1138] |  |  | fluorescence tagging of MSUT2 protein (MSUT2 [3]; PAL probe clicked with TAMRA-biotin-azide): target engagement |
| C=C(Cc1nc2c(s1)CSc1ccccc1-2)c1ccc(S(=O)(=O)CC)cc1 [UWK-5] | 0.586 |  | ligand-protein binding mode (decrease in tagging density with competitor) (MSUT2 [3]): competitive; IC50 [4]: 1100 nM |
